Ends that are not written are not given here.
Assays:
ADRA2A = biological target: T1, ADRA2A (Homo sapiens, UniProt P08913); experiment: ADRA2A GPCR cAMP modulation assay; type: cell-based; details: compared to the controls
T1 construct: host or cells: cAMP Hunter cell line
Experimental: GPCR cAMP Modulation Assays: cAMP Hunter cell lines were grown, plated, and subjected to Eurofins’ DiscoverX HitHunter cAMP XS+ assay. Gs agonist activity, Gi agonist activity, and antagonist activity-induced assays were read using chemiluminescent signal detection. The percentage of activity was calculated for Gs and Gi agonist assays, and the percentage of inhibition was calculated for Gs antagonist assays. […]
cAMP Second ary Messenger Assay pound results in the release of calcium from intracellular stores and DiscoverX has developed a panel of cell lines stably expressing non- an increase in dye fluorescence that is measured in real-time. tagged GPCRs that endogenously signal through cAMP. […]
The enzyme is split into two complementary portions: Enzyme Ac-ceptor (EA) and Enzyme Donor (ED). […] Active enzyme can then convert a chemilumines-cent substrate, generating an output signal detectable on a standard The NHR is tagged with the ProLink™ (PK) component of our EFC microplate reader. assay system, and the SRCP domain is fused to the Enzyme Ac-ceptor component (EA) expressed in the nucleus. […]

[1] = test system: CD1, wild type, adult mice; experiment: Cardiac MRI pre- and post-CTP injection; type: in vivo, mouse; details: male or female mice; immediately after CTP 150 µg/Kg i.v.; vs baseline
Experimental: Cardiac Function Studies, Pre- and Post-Injections: Six CD1, wild type, 6–8-week-old adult mice were obtained from the Charles River and used for cardiac MRI studies. Mice were weighed, anesthetized with 2.5% isoflurane, and ear tags removed before being inserted into the MRI scanner. A baseline cardiac MRI was performed, followed by intravenous CTP injection (150 µg/Kg). Post-injection, a second cardiac MRI was performed.

CHO-KCNQ1/minK = CHO-KCNQ1/minK (Homo sapiens, UniProt P15382+P51787); details: CTP 0.1 to 30 µM; CHO cells; step to +60mV; 0.1% Pluronic F-68

T1 sequence (P08913 whole entry): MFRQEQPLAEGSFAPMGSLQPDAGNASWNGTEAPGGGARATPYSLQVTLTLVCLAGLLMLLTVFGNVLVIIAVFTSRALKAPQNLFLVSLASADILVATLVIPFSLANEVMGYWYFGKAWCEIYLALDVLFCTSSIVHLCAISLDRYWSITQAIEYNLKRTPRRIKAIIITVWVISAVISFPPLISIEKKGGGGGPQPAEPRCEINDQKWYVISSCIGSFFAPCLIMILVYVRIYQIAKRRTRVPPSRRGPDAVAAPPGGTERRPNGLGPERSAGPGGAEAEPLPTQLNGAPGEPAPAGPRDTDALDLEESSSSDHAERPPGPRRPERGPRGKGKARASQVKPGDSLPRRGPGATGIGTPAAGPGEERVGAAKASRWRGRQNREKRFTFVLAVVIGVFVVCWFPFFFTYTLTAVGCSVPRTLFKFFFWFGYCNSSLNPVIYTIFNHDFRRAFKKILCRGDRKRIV

**Q.** What does the source list for APWHLSSQYSRT [CTP]?
**A.** agonist or antagonist action (ADRA2A): no significant action as either an agonist or antagonist; cardiac output [1]: no significant change; ejection fraction [1]: no significant change; heart rate [1]: no significant change; left ventricular mass [1]: no significant change; Estimated IC50 (CHO-KCNQ1/minK): N/C (Not calculable, inhibition >25% was not observed.)

Reference: article PMC10818749, “Toxicity Studies of Cardiac-Targeting Peptide Reveal a Robust Safety Profile” (Pharmaceutics, 2024)
